Laboratory results: BindingDB's records for doi:10.1016/j.bioorg.2004.06.008 (BiomolÉCules Et Cibles Cellulaires Tumorales, 2004)

Target: T1, Aromatase [1-48] (Homo sapiens, UniProt P11511)
T1 construct: 1-48
T1 sequence (P11511 whole entry): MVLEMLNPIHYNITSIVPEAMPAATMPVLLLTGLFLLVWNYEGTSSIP
Experiment: Biological Assay
Description: The inhibitory activities of the compounds toward aromatase were determined in vitro using human placental microsomes and [1,2,6,7-3H]-androstenedione.

Row | SMILES | IC50 [nM]
1 | COc1ccc2c(c1)OC(c1ccc(Cl)cc1)CC2n1ccnc1 (trans isomer) [2,4-Trans-4'-chloro-4-imidazolyl-7-methoxyflavan, 3b] | 200
2 | Oc1ccc(C2CC(n3ccnc3)c3ccc(O)cc3O2)cc1 (stereo not drawn) [2,4-Trans-4',7-dihydroxy-4-imidazolyl-7-methoxyflavan, 3e] | 77
3 | COc1ccc2c(c1)OC(c1ccc(O)cc1)CC2n1ccnc1 (stereo not drawn) [2,4-Trans-4'-hydroxy-4-imidazolyl-7-methoxyflavan, 3d] | 40

Continued by falling IC50, values first:

Row | IC50 [nM] | SMILES
4 | 133 | COc1ccc2c(c1)OC(c1ccc(C#N)cc1)CC2n1ccnc1 (stereo not drawn) [2,4-Trans-4'-cyano-4-imidazolyl-7-methoxyflavan, 3c]
5 | 130 | COc1ccc2c(c1)OC(c1cccc(O)c1)CC2n1ccnc1 (stereo not drawn) [2,4-Trans-3'-hydroxy-4-imidazolyl-7-methoxyflavan, 3a]
